# Measurements published in US5164391A, “Hydantoin derivatives for treating complications of diabetes and circulatory diseases” (priority 1989, dated 1992).
# Like-named read-outs stand apart in the source and are kept apart here.
# Experiments:
# [1] = tested on: right atrium; experiment: Action to heart of guinea pig: right atrium (pulsations); parameters: species or system Hartley guinea pigs; conditions: right atrium, 32°±1° C.; for inhibition at 100 µM: Cavia porcellus, read-out: Pulsation;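 for all read-outs here: Dash means no recognizable influence on pulsation rate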
# Method: (§1) Hartley guinea pigs (body weight of 300-400 g) were rendered unconscious by knocking their head and fixed upwardly to exenterate their heart. […] The vessel was previously filled with the Krebs-Henseleit solution and the said mixed gas was continuously fed therein.
# (§2) Samples were prepared by separating from a ventricular muscle a right and left atrium, along an auricloventricular furrow or groove from the center-line of the right and left auricles.
# A contraction of the sample, due to a compound to be tested, was recorded through an FD pick-up. Concurrently, pulsations were input to a measuring unit to count and record number of the pulsations.
# [2] = tested on: thoracic aorta; experiment: Action to the aorta of guinea pig (relaxation of contracted spiral samples); parameters: species or system Hartley guinea pigs; conditions: Cavia porcellus, 37° C.
# Text: Hartley guinea pigs (body weight of 300-500 g) were rendered unconscious fainted by knocking their head and fixed upwardly. A thoracic aorta was taken out to prepare spiral samples, each having size of about 2×25 mm. The sample was suspended in a Magnus tube under a load of about 1 g and upper end of the sample was connected through a silk thread to a FD pick-up to record a change in isometric tension.
# Composition of Krebs-Henseleit solution:
# Prior to the experiment, the sample in the Magnus tube was left to stand, as it was, for 60 to 90 minutes and in such period of time, the Krebs-Henseleit solution was exchanged to fresh one at an interval of 20 to 30 minutes.
# When the contraction of the sample became constant, the compound to be tested was gradually added in a amount starting at a concentration of 10^-8, to […] to observe the contraction of the sample. Finally, papaverine was added therein, so as to make its final concentration of 2×10^-5 g/ml, to check and record also the relaxing reaction or atony caused by the papaverine.
# [3] = tested on: blood pressure and cardiac pulsation; experiment: Influences upon the blood pressure and cardiac pulsation in guinea pigs; format: in vivo, Hartley guinea pigs; conditions: i.v.
# Text: Influences of compounds according to the invention upon the blood pressure and cardiac pulsation were checked with use of Hartley guinea pigs, as experimental animal.
# [4] = tested on: left atrium; experiment: Action to heart of guinea pig: left atrium (contraction power); parameters: species or system Hartley guinea pigs; conditions: left atrium, 32°±1° C.
# Method: as §1, §2
# The atrium was driven by contacting it with a platinum bipolar electrode attached to the cellfin and by stimulating the same with a rectangular pulse (1 Hz, 1 msec, 10 V). A movement of the sample was recorded by connecting the sample to a recorder through a silk thread and a FD pick-up.
# [5] = contraction by KCl 2.5×10^-2 M, read-out: IC50 KCl contraction (50% relaxing)
# [6] = contraction by norepinephrine 10^-6 g/ml, read-out: IC50 N.E. contraction (50% relaxing)
# [7] = 10 mg/kg, Example 17 marked (*) p < 0.001
# [8] = 10 mg/kg, Examples 16 and 17 marked (*) p < 0.001
"IC50 [2, 5] [µM]","IC50 [2, 6] [µM]",Structure (SMILES),Pulsation ([1]; 10^-4 (M)),Pulsation ([1]; 10^-5 (M)),Change in blood pressure ([3]; 3 mg/kg) [%],Change in cardiac pulsation ([3]; 3 mg/kg) [%],"Change in cardiac pulsation [3, 7] [%]","Change in blood pressure [3, 8] [%]",Contraction ([4]; 10^-4 (M)),Contraction ([4]; 10^-5 (M)),inhibition at 100 µM ([1]; 10^-4 (M)) [%],"inhibition at 100 µM ([4]; Cavia porcellus, 10^-4 (M), read-out: Contraction) [%]","inhibition at 10 µM ([4]; Cavia porcellus, 10^-5 (M), read-out: Contraction) [%]"
8,2,"NC(=O)[C@@H]1C[C@]2(NC(=O)N(CCCN3CCC(O)CC3)C2=O)c2cc(F)ccc2O1 [Example 15, (2S,4S)-1'-[3-(4-Hydroxypiperidin-1-yl)propyl]-6-fluoro-2',5'-dioxospiro[chroman-4,4'-imidazolidine]-2-carboxamide]",-,-,-2.6 ± 1.8,0.0 ± 0.0,-5.4 ± 2.9,-12.2 ± 5.6,-,-,,,
1,30,"CCCCNC(=O)[C@@H]1C[C@]2(NC(=O)N(CCCN3CCC(O)CC3)C2=O)c2cc(F)ccc2O1 [Example 17, (2S,4S)-N-Butyl-1'-[3-(4-hydroxypiperidin-1-yl)propyl]-6-fluoro-2',5'-dioxospiro[chroman-4,4'-imidazolidine]-2-carboxamide]",,-,-3.0 ± 3.0,-1.1 ± 1.1,-48.9 ± 2.2,-43.8 ± 4.9,,,10 to 20,> 20,10 to 20
59,5,"CCNC(=O)[C@@H]1C[C@]2(NC(=O)N(CCCN3CCC(O)CC3)C2=O)c2cc(F)ccc2O1 [Example 16, (2S,4S)-N-Ethyl-1'-[3-(4-hydroxypiperidin-1-yl)propyl]-6-fluoro-2',5'-dioxospiro[chroman-4,4'-imidaxolidine]-2-carboxamide]",,-,-4.0 ± 4.0,-1.2 ± 1.2,-4.7 ± 4.6,-21.3 ± 2.4,-,-,10 to 20,,
